One data set has as its target HIS-KRAS(G12C) (Homo sapiens (Human), UniProt P01116, G12C). The experiment in a line: SOS1 catalyzed nucleotide exchange assay (TR-FRET). The format is biochemical. The note with it: GDP-loaded HIS-KRAS(G12C), 1 hour pre-incubation, TR-FRET. The protocol:
TR-FRET signals were then read on Tecan Spark multimode microplate reader. […] TR-FRET ratios for each individual wells were calculated by equation: TR-FRET ratio=(Signal F515/Signal F486)*10000. Then the data were analyzed using a 4-parameter logistic model to calculate IC50 values.

Data set [1] has as its system NCI-H358 cells expressing KRAS G12C mutant protein. The experiment in a line: Phospho-ERK1/2(THR202/TYR204) HTRF assay. The format is cell-based. The note with it: 2 hours incubation, read-out: p-ERK IC50. The protocol:
The NCI-H358 cells in culture medium were seeded in 96-well plates at a concentration of 40,000 cells/well and then put in a 37° C./5% CO2 cell incubator to incubate overnight. […] After 2 hours incubation in a 37° C./5% CO2 cell incubator, the assay medium in 96-well plates was removed, then 50 μL of 1× blocking reagent-supplemented lysis buffer (Cisbio) was added and the plates were incubated at 25° C. for 45 min with shaking. 10 μL of cell lysates from the 96-well plates were transferred to a 384-well plate (Greiner) containing 2.5 μL/well HTRF® pre-mixed antibodies (Cisbio 64AERPEH). Incubate 4 hours at 25° C. and then read HTRF signals on Tecan Spark multimode microplate reader. The data were analyzed using a 4-parameter logistic model to calculate IC50 values.

Data set [2] can be described thus: Mouse pharmacokinetic study. The format is in vivo, Balb/c mouse. The protocol:
The purpose of this study was to evaluate the pharmacokinetic properties of compounds in Balb/c mouse (♀) following single dose administration. The day before administration, mice were fasted overnight and free access to water. Six mice were needed for each compound and the six mice were divided into two groups (n=3/group), group A and group B. Mice in group A were treated with a single 3 mg/kg dose of compound (iv). Mice in group B were treated with a single 10 mg/kg dose of compound (po). For each mouse in group A, blood samples were collected at pre-dose, and at the time point of 0.083, 0.25, 0.5, 1, 2, 4, 6, 8 and 24 h post-dose. For each mouse in group B, blood samples were collected at pre-dose, and at the time point of 0.25, 0.5, 1, 2, 3, 4, 6, 8 and 24 h post-dose. Blood samples were placed on ice until centrifugation to obtain plasma samples. The plasma samples were stored at −80° C. until analysis. The concentration of compound in plasma samples was determined using a LC-MS/MS method.

Five molecules from patent US11345701B1, “KRAS mutant protein inhibitors” (Jacobio Pharmaceuticals Co., Ltd., priority 2021, dated 2022) can be followed below.

Where two headings read alike, the source gives them in different places.

Sequence of HIS-KRAS(G12C) (P01116 other isoform, or with tags, fused parts or gaps G12C): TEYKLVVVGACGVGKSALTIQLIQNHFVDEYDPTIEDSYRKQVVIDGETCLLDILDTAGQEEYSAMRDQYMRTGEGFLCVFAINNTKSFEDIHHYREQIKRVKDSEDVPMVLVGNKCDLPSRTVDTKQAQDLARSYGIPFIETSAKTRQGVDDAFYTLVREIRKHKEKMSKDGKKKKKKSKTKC

As to `C=CC(=O)N1[C@H](C)CN(c2nc(=O)n(-c3c(C)ccnc3C(C)C)c3nc(-c4c(F)c(F)c(F)c(N)c4Cl)c(F)cc23)C[C@@H]1C` (single isomer, unassigned) [Compound 7-1], the IC50 turned out to be 6.54 nM on HIS-KRAS(G12C) and 36.7 nM in data set [1] (Homo sapiens, NCI-H358, 2 h).

For `C=CC(=O)N1CCN(c2nc(=O)n(-c3c(C)ccnc3C(C)C)c3nc(-c4c(N)c(F)c(F)c(F)c4F)c(F)cc23)[C@@H](C)C1` [Compound 2, 4-((S)-4-acryloyl-2-methylpiperazin-1-yl)-7-(2-amino-3,4,5,6-tetrafluorophenyl)-6-fluoro-1-(2-isopropyl-4-methylpyridin-3-yl)pyrido[2,3-d]pyrimidin-2(1H)-one], the IC50 at HIS-KRAS(G12C) stood at 2.04 nM; in data set [1] (Homo sapiens, NCI-H358, 2 h) it was 30.7 nM. Besides, the “Pharmacokinetic properties in words” value in data set [2] (mouse model, 3 mg/kg iv and 10 mg/kg po) is recorded as “good pharmacokinetic properties”. In data set [2] (plasma, Balb/c mouse (female), 3 mg/kg, iv), this molecule came in with a clearance of 65.2 mL/min/kg. Moreover, the Vd in data set [2] (plasma, Balb/c mouse (female), 3 mg/kg, iv, read-out: Vss) turned out to be 2.31 L/kg. In addition, in data set [2] (plasma, Balb/c mouse (female), 10 mg/kg, po, read-out: AUC0-24 h), the AUC(0-t) came out at 1150 ng·h/mL. Besides, the Cmax in data set [2] (plasma, Balb/c mouse (female), 10 mg/kg, po, read-out: Cmax) is 1440 ng/mL. Further, the bioavailability in data set [2] (plasma, Balb/c mouse (female), 10 mg/kg, po, read-out: Oral BA (F %)) was determined as 44.7%.

For the molecule `C=CC(=O)N1CCN(c2nc(=O)n(-c3c(C)ccnc3C(C)C)c3nc(-c4c(N)c(F)c(F)c(F)c4F)c(F)cc23)[C@@H](C)C1` (atropisomer, axis not shown; (P)) [Compound 2-2, (P)-4-((S)-4-acryloyl-2-methylpiperazin-1-yl)-7-(2-amino-3,4,5,6-tetrafluorophenyl)-6-fluoro-1-(2-isopropyl-4-methylpyridin-3-yl)pyrido[2,3-d]pyrimidin-2(1H)-one], the IC50 on HIS-KRAS(G12C) amounted to 61.8 nM; in data set [1] it was 681 nM.

Regarding `C=CC(=O)N1CCN(c2nc(=O)n(-c3c(C)ccnc3C(C)C)c3nc(-c4c(F)c(F)c(F)c(N)c4Cl)c(F)cc23)[C@@H](C)C1` [Compound 1, 4-((S)-4-acryloyl-2-methylpiperazin-1-yl)-7-(3-amino-2-chloro-4,5,6-trifluorophenyl)-6-fluoro-1-(2-isopropyl-4-methylpyridin-3-yl)pyrido[2,3-d]pyrimidin-2(1H)-one], the IC50 turned out to be 7.25 nM on HIS-KRAS(G12C) and 70.1 nM in data set [1] (Homo sapiens, NCI-H358, 2 h).

As to `C=CC(=O)N1[C@H](C)CN(c2nc(=O)n(-c3c(C)ccnc3C(C)C)c3nc(-c4c(N)c(F)c(F)c(F)c4F)c(F)cc23)C[C@@H]1C` (single isomer, unassigned) [Compound 5-1], the results for the IC50 (against HIS-KRAS(G12C); in data set [1]) were 3.3 nM and 17.8 nM, respectively.

The IC50 is the concentration needed to halve the response being measured. One may read the clearance as a measure of how efficiently the substance is removed, as volume per time. Read a low clearance as a low capacity for elimination. The Cmax is the highest concentration seen after dosing.
